The NIST ThermoML archive (doi:10.1021/je025655p)

What was measured:
[1] = xn = mol fraction of the nth substance listed; details: 101.3 kPa, Liquid; for viscosity: Capillary tube (Ostwald / Ubbelohde) method; for speed of sound: Sing-around technique in a fixed-path interferometer; for mass density: Vibrating tube method
[2] = excess molar enthalpy (molar enthalpy of mixing); xn = mol fraction of the nth substance listed; details: 101.3 kPa, Liquid, Flow calorimetry

OCC(F)(F)F [2,2,2-trifluoroethanol] + C1CCOCC1
Details | excess molar enthalpy [kcal/mol] | mass density [kg/m3] | speed of sound [m/s] | viscosity [mPa·s]
[1], 283.15 K, x2 = 0.0508 | – | – | – | 2.521
[1], 283.15 K, x2 = 0.1011 | – | – | – | 2.265
[1], 283.15 K, x2 = 0.1039 | – | 1328.18 | 903.5 | –
[1], 283.15 K, x2 = 0.2025 | – | – | – | 1.834
[1], 283.15 K, x2 = 0.2071 | – | 1259.32 | 942.2 | –
[1], 283.15 K, x2 = 0.3024 | – | – | – | 1.546
[1], 283.15 K, x2 = 0.3067 | – | – | 985.6 | –
[1], 283.15 K, x2 = 0.3073 | – | 1199.39 | – | –
[1], 283.15 K, x2 = 0.404 | – | – | – | 1.348
[1], 283.15 K, x2 = 0.4123 | – | – | 1034 | –
[1], 283.15 K, x2 = 0.4127 | – | 1142.29 | – | –
[1], 283.15 K, x2 = 0.5017 | – | 1097.77 | 1076.2 | –
[1], 283.15 K, x2 = 0.5027 | – | – | – | 1.22
[1], 283.15 K, x2 = 0.6011 | – | 1051.7 | 1124.9 | –
[1], 283.15 K, x2 = 0.6069 | – | – | – | 1.123
[1], 283.15 K, x2 = 0.7013 | – | – | – | 1.064
[1], 283.15 K, x2 = 0.7183 | – | 1001.3 | 1184.3 | –
[1], 283.15 K, x2 = 0.8016 | – | – | – | 1.026
[1], 283.15 K, x2 = 0.8206 | – | 960.36 | 1237.7 | –
[1], 283.15 K, x2 = 0.8955 | – | 931.9 | 1278.1 | –
[1], 283.15 K, x2 = 0.9064 | – | – | – | 1.01
[1], 298.15 K, x2 = 0.0508 | – | – | – | 1.68
[1], 298.15 K, x2 = 0.1011 | – | – | – | 1.557
[1], 298.15 K, x2 = 0.1023 | – | 1305.58 | 850.5 | –
[1], 298.15 K, x2 = 0.2025 | – | – | – | 1.33
[1], 298.15 K, x2 = 0.2029 | – | 1239.41 | 886.4 | –
[1], 298.15 K, x2 = 0.3024 | – | – | – | 1.159
[1], 298.15 K, x2 = 0.3203 | – | 1170.85 | 933.6 | –
[1], 298.15 K, x2 = 0.404 | – | – | – | 1.034
[1], 298.15 K, x2 = 0.412 | – | 1122.5 | 972.6 | –
[1], 298.15 K, x2 = 0.5027 | – | – | – | 0.9509
[1], 298.15 K, x2 = 0.5192 | – | 1070.38 | – | –
[1], 298.15 K, x2 = 0.5208 | – | – | 1021 | –
[1], 298.15 K, x2 = 0.6069 | – | – | – | 0.8855
[1], 298.15 K, x2 = 0.6171 | – | 1026.55 | 1065.4 | –
[1], 298.15 K, x2 = 0.7013 | – | – | – | 0.845
[1], 298.15 K, x2 = 0.7342 | – | 977.81 | 1121 | –
[1], 298.15 K, x2 = 0.793 | – | 954.59 | – | –
[1], 298.15 K, x2 = 0.7996 | – | – | 1152.3 | –
[1], 298.15 K, x2 = 0.8016 | – | – | – | 0.8183
[1], 298.15 K, x2 = 0.8967 | – | 915.73 | 1201.6 | –
[1], 298.15 K, x2 = 0.9064 | – | – | – | 0.8047
[1], 313.15 K, x2 = 0.0508 | – | – | – | 1.171
[1], 313.15 K, x2 = 0.0995 | – | – | 813.9 | –
[1], 313.15 K, x2 = 0.1011 | – | – | – | 1.112
[1], 313.15 K, x2 = 0.1028 | – | 1280.8 | – | –
[1], 313.15 K, x2 = 0.2 | – | 1217.96 | 845.8 | –
[1], 313.15 K, x2 = 0.2025 | – | – | – | 0.9911
[1], 313.15 K, x2 = 0.3024 | – | – | – | 0.891
[1], 313.15 K, x2 = 0.3049 | – | 1157.77 | 885 | –
[1], 313.15 K, x2 = 0.404 | – | – | – | 0.8127
[1], 313.15 K, x2 = 0.4108 | – | 1102.63 | – | –
[1], 313.15 K, x2 = 0.4111 | – | – | 927.4 | –
[1], 313.15 K, x2 = 0.5027 | – | – | – | 0.757
[1], 313.15 K, x2 = 0.504 | – | 1058.19 | 967.4 | –
[1], 313.15 K, x2 = 0.5961 | – | 1017.26 | – | –
[1], 313.15 K, x2 = 0.6032 | – | – | 1010.4 | –
[1], 313.15 K, x2 = 0.6069 | – | – | – | 0.7128
[1], 313.15 K, x2 = 0.6986 | – | 974.97 | – | –
[1], 313.15 K, x2 = 0.7013 | – | – | – | 0.6832
[1], 313.15 K, x2 = 0.733 | – | – | 1070.3 | –
[1], 313.15 K, x2 = 0.8016 | – | – | – | 0.6642
[1], 313.15 K, x2 = 0.8321 | – | 923.77 | 1116.2 | –
[1], 313.15 K, x2 = 0.8986 | – | 899.6 | – | –
[1], 313.15 K, x2 = 0.8988 | – | – | 1149.4 | –
[1], 313.15 K, x2 = 0.9064 | – | – | – | 0.6543
[2], 283.15 K, x2 = 0.065 | -0.102 | – | – | –
[2], 283.15 K, x2 = 0.127 | -0.178 | – | – | –
[2], 283.15 K, x2 = 0.248 | -0.283 | – | – | –
[2], 283.15 K, x2 = 0.36 | -0.342 | – | – | –
[2], 283.15 K, x2 = 0.466 | -0.362 | – | – | –
[2], 283.15 K, x2 = 0.57 | -0.35 | – | – | –
[2], 283.15 K, x2 = 0.664 | -0.303 | – | – | –
[2], 283.15 K, x2 = 0.755 | -0.243 | – | – | –
[2], 283.15 K, x2 = 0.839 | -0.168 | – | – | –
[2], 283.15 K, x2 = 0.921 | -0.0829 | – | – | –
[2], 283.15 K, x2 = 0.962 | -0.037 | – | – | –
[2], 298.15 K, x2 = 0.065 | -0.113 | – | – | –
[2], 298.15 K, x2 = 0.127 | -0.204 | – | – | –
[2], 298.15 K, x2 = 0.248 | -0.322 | – | – | –
[2], 298.15 K, x2 = 0.36 | -0.384 | – | – | –
[2], 298.15 K, x2 = 0.466 | -0.404 | – | – | –
[2], 298.15 K, x2 = 0.57 | -0.387 | – | – | –
[2], 298.15 K, x2 = 0.664 | -0.339 | – | – | –
[2], 298.15 K, x2 = 0.755 | -0.268 | – | – | –
[2], 298.15 K, x2 = 0.839 | -0.184 | – | – | –
[2], 298.15 K, x2 = 0.921 | -0.0908 | – | – | –
[2], 298.15 K, x2 = 0.962 | -0.0428 | – | – | –
[2], 313.15 K, x2 = 0.065 | -0.114 | – | – | –
[2], 313.15 K, x2 = 0.127 | -0.215 | – | – | –
[2], 313.15 K, x2 = 0.248 | -0.348 | – | – | –
[2], 313.15 K, x2 = 0.36 | -0.421 | – | – | –
[2], 313.15 K, x2 = 0.466 | -0.444 | – | – | –
[2], 313.15 K, x2 = 0.57 | -0.427 | – | – | –
[2], 313.15 K, x2 = 0.664 | -0.374 | – | – | –
[2], 313.15 K, x2 = 0.755 | -0.297 | – | – | –
[2], 313.15 K, x2 = 0.839 | -0.203 | – | – | –
[2], 313.15 K, x2 = 0.921 | -0.0997 | – | – | –
[2], 313.15 K, x2 = 0.962 | -0.0466 | – | – | –
